Measured values reported in ChEMBL document CHEMBL1933046, “Synthesis and antibacterial activity of a novel series of acylides active against community acquired respiratory pathogens” (2012).
Converted amounts (≈) assume the structure as drawn. The source made the active and inactive calls. The rule behind the calls is not given here.

Experiments:
Streptococcus pneumoniae [1] = test: Antibacterial activity against Streptococcus pneumoniae 994 expressing mef gene by NCCLS method; format: functional
Streptococcus pyogenes = test: Antibacterial activity against Streptococcus pyogenes 19615 by NCCLS method; format: functional
Haemophilus influenzae = test: Antibacterial activity against Haemophilus influenzae 38 by NCCLS method; format: functional
Moraxella catarrhalis = test: Antibacterial activity against Moraxella catarrhalis 8176 by NCCLS method; format: functional
Streptococcus pneumoniae [2] = test: Antibacterial activity against telethromycin-resistant Streptococcus pneumoniae 757 expressing erm gene by NCCLS method; format: functional
Streptococcus pneumoniae [3] = test: Antibacterial activity against telethromycin-resistant Streptococcus pneumoniae 162 expressing erm gene by NCCLS method; format: functional
Streptococcus pneumoniae [4] = test: Antibacterial activity against telethromycin-resistant Streptococcus pneumoniae 2840 expressing erm gene by NCCLS method; format: functional
Streptococcus pneumoniae [5] = test: Antibacterial activity against telethromycin-resistant Streptococcus pneumoniae 3489 expressing erm gene by NCCLS method; format: functional
Streptococcus pneumoniae [6] = test: Antibacterial activity against telethromycin-resistant Streptococcus pneumoniae B739 expressing erm gene by NCCLS method; format: functional
Streptococcus pneumoniae [7] = test: Antibacterial activity against telethromycin-resistant Streptococcus pneumoniae 3271 expressing erm gene by NCCLS method; format: functional
Streptococcus pneumoniae [8] = test: Antibacterial activity against telethromycin-resistant Streptococcus pneumoniae 217 expressing erm gene by NCCLS method; format: functional
Streptococcus pneumoniae [9] = test: Antibacterial activity against telethromycin-resistant Streptococcus pneumoniae 3488 expressing erm gene by NCCLS method; format: functional
Streptococcus pneumoniae [10] = test: Antibacterial activity against telethromycin-resistant Streptococcus pneumoniae AB14 expressing erm gene by NCCLS method; format: functional
Streptococcus pneumoniae [11] = test: Antibacterial activity against telethromycin-resistant Streptococcus pneumoniae 5099 expressing erm gene by NCCLS method; format: functional
Streptococcus pneumoniae [12] = test: Antibacterial activity against telethromycin-resistant Streptococcus pneumoniae 3390 expressing erm gene by NCCLS method; format: functional
Streptococcus pneumoniae [13] = test: Antibacterial activity against telethromycin-resistant Streptococcus pneumoniae 5051 expressing erm gene by NCCLS method; format: functional
Streptococcus pneumoniae [14] = test: Antibacterial activity against Streptococcus pneumoniae 3579 expressing erm gene infected in mouse systemic infection model; format: functional, organism-based
Streptococcus pneumoniae [15] = test: Antibacterial activity against Streptococcus pneumoniae 6303 by NCCLS method; format: functional
Streptococcus pneumoniae [16] = test: Antibacterial activity against Streptococcus pneumoniae 49619 by NCCLS method; format: functional
Streptococcus pneumoniae [17] = test: Antibacterial activity against Streptococcus pneumoniae 3579 expressing erm gene by NCCLS method; format: functional

SMILES | MIC (Streptococcus pneumoniae [1]) [µg/mL] | MIC (Streptococcus pyogenes) [µg/mL] | MIC (Haemophilus influenzae) [µg/mL] | MIC (Moraxella catarrhalis) [µg/mL] | MIC (Streptococcus pneumoniae [2]) [µg/mL] | MIC (Streptococcus pneumoniae [3]) [µg/mL] | MIC (Streptococcus pneumoniae [4]) [µg/mL] | MIC (Streptococcus pneumoniae [5]) [µg/mL] | MIC (Streptococcus pneumoniae [6]) [µg/mL] | MIC (Streptococcus pneumoniae [7]) [µg/mL] | MIC (Streptococcus pneumoniae [8]) [µg/mL] | MIC (Streptococcus pneumoniae [9]) [µg/mL] | MIC (Streptococcus pneumoniae [10]) [µg/mL] | MIC (Streptococcus pneumoniae [11]) [µg/mL] | MIC (Streptococcus pneumoniae [12]) [µg/mL] | MIC (Streptococcus pneumoniae [13]) [µg/mL] | Activity (Streptococcus pneumoniae [14]) | MIC (Streptococcus pneumoniae [15]) [µg/mL] | MIC (Streptococcus pneumoniae [16]) [µg/mL] | MIC (Streptococcus pneumoniae [17]) [µg/mL]
C=CCN(C)[C@H]1C[C@@H](C)O[C@@H](O[C@@H]2[C@@H](C)[C@H](OC(=O)Cc3ccccn3)[C@@H](C)C(=O)O[C@H](CC)[C@@]3(C)OC(=O)N(CCCCn4cnc5ncccc54)[C@@H]3[C@@H](C)C(=O)[C@H](C)C[C@@]2(C)OC)[C@@H]1O | 0.5 (≈ 0.536 µM) | 0.06 (≈ 0.0643 µM) | < 0.06 | 0.25 (≈ 0.268 µM) | 0.25 (≈ 0.268 µM) | 1 (≈ 1.07 µM) | 0.5 (≈ 0.536 µM) | 0.5 (≈ 0.536 µM) | 0.5 (≈ 0.536 µM) | 0.5 (≈ 0.536 µM) | 0.125 (≈ 0.134 µM) | 0.125 (≈ 0.134 µM) | 0.06 (≈ 0.0643 µM) | 0.06 (≈ 0.0643 µM) | 0.125 (≈ 0.134 µM) | 0.125 (≈ 0.134 µM) | Active | 0.06 (≈ 0.0643 µM) | 0.06 (≈ 0.0643 µM) | 0.5 (≈ 0.536 µM)
C=CCN(C)[C@H]1C[C@@H](C)O[C@@H](O[C@@H]2[C@@H](C)[C@H](OC(=O)Cc3ccccn3)[C@@H](C)C(=O)O[C@H](CC)[C@@]3(C)OC(=O)N(CCCCn4ccc5cccnc54)[C@@H]3[C@@H](C)C(=O)[C@H](C)C[C@@]2(C)OC)[C@@H]1O | 0.25 (≈ 0.268 µM) | 0.03 (≈ 0.0322 µM) | < 0.06 | 0.25 (≈ 0.268 µM) | 1 (≈ 1.07 µM) | 4 (≈ 4.29 µM) | 2 (≈ 2.15 µM) | 2 (≈ 2.15 µM) | 2 (≈ 2.15 µM) | 4 (≈ 4.29 µM) | 1 (≈ 1.07 µM) | 0.5 (≈ 0.536 µM) | 0.25 (≈ 0.268 µM) | 0.25 (≈ 0.268 µM) | 0.25 (≈ 0.268 µM) | 0.5 (≈ 0.536 µM) | Active | 0.03 (≈ 0.0322 µM) | 0.03 (≈ 0.0322 µM) | 1 (≈ 1.07 µM)
C=CCN(C)[C@H]1C[C@@H](C)O[C@@H](O[C@@H]2[C@@H](C)[C@H](OC(=O)Cc3ccccn3)[C@@H](C)C(=O)O[C@H](CC)[C@@]3(C)OC(=O)N(CCCCn4cnc(-c5ccco5)c4)[C@@H]3[C@@H](C)C(=O)[C@H](C)C[C@@]2(C)OC)[C@@H]1O | 0.125 (≈ 0.132 µM) | 0.03 (≈ 0.0316 µM) | < 0.06 | 0.25 (≈ 0.264 µM) | 1 (≈ 1.05 µM) | 4 (≈ 4.22 µM) | 2 (≈ 2.11 µM) | 2 (≈ 2.11 µM) | 2 (≈ 2.11 µM) | 2 (≈ 2.11 µM) | 1 (≈ 1.05 µM) | 0.5 (≈ 0.527 µM) | 0.25 (≈ 0.264 µM) | 0.25 (≈ 0.264 µM) | 0.5 (≈ 0.527 µM) | 0.25 (≈ 0.264 µM) | Active | 0.06 (≈ 0.0633 µM) | 0.03 (≈ 0.0316 µM) | 0.125 (≈ 0.132 µM)
C=CCN(C)[C@H]1C[C@@H](C)O[C@@H](O[C@@H]2[C@@H](C)[C@H](OC(=O)Cc3cccnc3)[C@@H](C)C(=O)O[C@H](CC)[C@@]3(C)OC(=O)N(CCCCn4cnc5ncccc54)[C@@H]3[C@@H](C)C(=O)[C@H](C)C[C@@]2(C)OC)[C@@H]1O | 0.06 (≈ 0.0643 µM) | 0.06 (≈ 0.0643 µM) | 0.125 (≈ 0.134 µM) | 0.06 (≈ 0.0643 µM) | 0.5 (≈ 0.536 µM) | 1 (≈ 1.07 µM) | 0.5 (≈ 0.536 µM) | 0.5 (≈ 0.536 µM) | 0.5 (≈ 0.536 µM) | 1 (≈ 1.07 µM) | 0.5 (≈ 0.536 µM) | 0.25 (≈ 0.268 µM) | 0.125 (≈ 0.134 µM) | 0.125 (≈ 0.134 µM) | 0.25 (≈ 0.268 µM) | 0.25 (≈ 0.268 µM) | Active | 0.06 (≈ 0.0643 µM) | 0.03 (≈ 0.0321 µM) | 1 (≈ 1.07 µM)
C=CCN(C)[C@H]1C[C@@H](C)O[C@@H](O[C@@H]2[C@@H](C)[C@H](OC(=O)Cc3ccccn3)[C@@H](C)C(=O)O[C@H](CC)[C@@]3(C)OC(=O)N(CCCCn4cnc(-c5ccnc(N)c5)c4)[C@@H]3[C@@H](C)C(=O)[C@H](C)C[C@@]2(C)OC)[C@@H]1O | 0.06 (≈ 0.0616 µM) | 2 (≈ 2.05 µM) | – | 0.06 (≈ 0.0616 µM) | 0.125 (≈ 0.128 µM) | 1 (≈ 1.03 µM) | 0.5 (≈ 0.513 µM) | 1 (≈ 1.03 µM) | 1 (≈ 1.03 µM) | 2 (≈ 2.05 µM) | 0.125 (≈ 0.128 µM) | 0.125 (≈ 0.128 µM) | 0.03 (≈ 0.0308 µM) | 0.06 (≈ 0.0616 µM) | 0.125 (≈ 0.128 µM) | 0.06 (≈ 0.0616 µM) | Active | 0.03 (≈ 0.0308 µM) | 0.03 (≈ 0.0308 µM) | 0.125 (≈ 0.128 µM)
C=CCN(C)[C@H]1C[C@@H](C)O[C@@H](O[C@@H]2[C@@H](C)[C@H](OC(=O)Cc3ccccn3)[C@@H](C)C(=O)O[C@H](CC)[C@@]3(C)OC(=O)N(CCCCn4cnc(-c5ccc(N)nc5)c4)[C@@H]3[C@@H](C)C(=O)[C@H](C)C[C@@]2(C)OC)[C@@H]1O | 0.125 (≈ 0.128 µM) | 2 (≈ 2.05 µM) | – | 0.125 (≈ 0.128 µM) | 0.06 (≈ 0.0616 µM) | 0.5 (≈ 0.513 µM) | 0.25 (≈ 0.257 µM) | 0.25 (≈ 0.257 µM) | 0.125 (≈ 0.128 µM) | 0.25 (≈ 0.257 µM) | 0.06 (≈ 0.0616 µM) | 0.03 (≈ 0.0308 µM) | 0.03 (≈ 0.0308 µM) | 0.03 (≈ 0.0308 µM) | 0.06 (≈ 0.0616 µM) | 0.03 (≈ 0.0308 µM) | Active | 0.06 (≈ 0.0616 µM) | 0.06 (≈ 0.0616 µM) | 0.25 (≈ 0.257 µM)
